The values below are quoted from earlier work in US20240298642A1, “Herbicidal Compositions Comprising Fluazifop And Triclopyr” (Bayer CropScience LP, priority 2023, published 2024).

For this data set the following is noted: neat solvent.

Consider `CCCCCCCCO` [Composition 1-octanol, 1-octanol], for which the flash point was 81 °C.

In the case of `CCCCCCO` [Composition 1-hexanol, 1-hexanol], the flash point was 65 °C.
